Common to all, as to assay type: biochemical
One test concerns the target T1, HGFA (Homo sapiens, UniProt Q04756).
T1 construct: purchased R&D Systems 1514-SE-010
T1 sequence (Q04756 408-655 limits assumed): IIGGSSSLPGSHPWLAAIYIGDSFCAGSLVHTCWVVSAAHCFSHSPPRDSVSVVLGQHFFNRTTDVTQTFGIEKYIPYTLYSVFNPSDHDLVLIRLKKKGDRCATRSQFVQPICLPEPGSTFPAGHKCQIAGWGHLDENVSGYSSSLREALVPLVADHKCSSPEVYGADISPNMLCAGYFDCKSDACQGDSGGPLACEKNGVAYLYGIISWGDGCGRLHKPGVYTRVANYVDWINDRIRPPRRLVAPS
T1 sequence (Q04756 373-407 partner limits assumed): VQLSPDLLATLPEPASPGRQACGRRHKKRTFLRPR
In words: Fluorogenic kinetic enzyme inhibitor assay, HGFA.

The next test addresses T2, matriptase (Homo sapiens, UniProt Q9Y5Y6).
T2 construct: purchased R&D Systems 3946-SEB-010
T2 sequence (Q9Y5Y6 615-855 limits assumed): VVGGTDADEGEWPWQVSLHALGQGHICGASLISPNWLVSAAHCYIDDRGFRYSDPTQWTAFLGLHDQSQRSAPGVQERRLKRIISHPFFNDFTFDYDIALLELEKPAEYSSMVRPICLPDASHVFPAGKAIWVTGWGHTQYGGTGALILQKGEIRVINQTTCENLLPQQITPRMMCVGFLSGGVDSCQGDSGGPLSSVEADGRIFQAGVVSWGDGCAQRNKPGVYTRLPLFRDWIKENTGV
The experiment in a line: Fluorogenic kinetic enzyme inhibitor assay, matriptase.

Another test addresses T3, hepsin (Homo sapiens, UniProt P05981).
T3 construct: purchased R&D Systems 4776-SE-010
In words: Fluorogenic kinetic enzyme inhibitor assay, hepsin.

For a further test, the target named is TMPRSS2 (Homo sapiens, UniProt O15393). The experiment in a line: Fluorogenic kinetic enzyme inhibitor assay, TMPRSS2. More on the design: purchased Cusabio Technology CSB-YP023924HU. To be noted: read-out: TMPRSS2 IC50.
Sequence of TMPRSS2 (O15393 106-492 limits assumed): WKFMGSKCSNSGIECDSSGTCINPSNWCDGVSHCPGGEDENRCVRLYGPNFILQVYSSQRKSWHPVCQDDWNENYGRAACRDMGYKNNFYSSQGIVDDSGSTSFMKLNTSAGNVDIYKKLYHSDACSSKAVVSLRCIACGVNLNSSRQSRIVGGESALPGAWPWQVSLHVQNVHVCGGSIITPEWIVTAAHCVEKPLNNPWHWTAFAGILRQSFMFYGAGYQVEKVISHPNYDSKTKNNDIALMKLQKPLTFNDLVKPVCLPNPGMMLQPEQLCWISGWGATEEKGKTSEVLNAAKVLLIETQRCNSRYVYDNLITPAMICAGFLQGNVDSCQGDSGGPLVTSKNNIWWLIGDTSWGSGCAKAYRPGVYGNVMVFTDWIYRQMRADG

Like-named read-outs stand apart in the source and are kept apart here.

T3 sequence (P05981 163-417 limits assumed): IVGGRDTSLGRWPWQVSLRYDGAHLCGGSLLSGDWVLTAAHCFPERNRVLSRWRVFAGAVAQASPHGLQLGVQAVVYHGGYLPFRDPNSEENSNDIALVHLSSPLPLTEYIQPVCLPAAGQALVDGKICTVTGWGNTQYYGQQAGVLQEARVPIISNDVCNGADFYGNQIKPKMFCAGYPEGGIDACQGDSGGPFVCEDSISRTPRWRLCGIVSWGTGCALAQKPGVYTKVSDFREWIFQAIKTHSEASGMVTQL
T3 sequence (P05981 1-162 partner limits assumed): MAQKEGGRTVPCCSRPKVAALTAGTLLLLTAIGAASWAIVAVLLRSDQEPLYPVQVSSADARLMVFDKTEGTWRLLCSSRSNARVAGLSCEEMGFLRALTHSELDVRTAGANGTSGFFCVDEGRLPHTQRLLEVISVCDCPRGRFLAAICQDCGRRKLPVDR

With `CC(=O)N[C@@H](CO)C(=O)NCc1cccc(CC(=O)N[C@@H](CC(C)C)C(=O)N[C@H](CCCNC(=N)N)C(=O)c2nc3ccccc3s2)c1` [MM1132-1, N-[(R)-1-[(1,3-benzothiazol-2-yl)carbonyl]-4-guanidinobutyl](S)-2-{[(m-{[(S)-2-acetylamino-3-hydroxypropionylamino]methyl}phenyl)methyl]carbonylamino}-4-methylvaleramide], the IC50 is 3250 nM on HGFA (read-out: HGFA IC50), 419 nM on matriptase (read-out: Matriptase IC50) and 1.91 nM at hepsin (read-out: Hepsin IC50).
In the case of `CCC(C)[C@H](NC(C)=O)C(=O)N[C@@H](CCC(N)=O)C(=O)N[C@H](C(=O)N[C@@H](CCCNC(=N)N)C(=O)c1nc2ccccc2s1)C(C)C` (stereo partly drawn) [MM3180-2, N-[(S)-2-methyl-1-[N-(S)-1-[(1,3-benzothiazol-2-yl)carbonyl]-4-guanidinobutylcarbamoyl]propyl](S)-2-[(2S)-2-acetylamino-3-methylvalerylamino]glutaramide], the IC50 on HGFA (read-out: HGFA IC50) came out at 799 nM; against matriptase it was 0.761 nM; at hepsin (read-out: Hepsin IC50), 0.106 nM; on TMPRSS2 it was 0.031 nM.
With `CC(=O)N1CCC[C@H]1C(=O)N[C@@H](CO)C(=O)N[C@@H](CCCCN)C(=O)N[C@@H](CCCNC(=N)N)C(=O)c1nc2ccccc2s1` [MM3194A, N-[(S)-2-hydroxy-1-[N-(S)-5-amino-1-[N-(S)-1-[(1,3-benzothiazol-2-yl)carbonyl]-4-guanidinobutylcarbamoyl]pentylcarbamoy1]ethyl]-(S)-1-acetyl-2-pyrrolidinecarboxamide], the IC50 against HGFA was above 20000 nM; against matriptase, 0.293 nM; against hepsin it was 2.43 nM; at TMPRSS2 it was 0.286 nM.
`CC(=O)N1CCC[C@H]1C(=O)N[C@@H](CO)C(=O)N[C@@H](CCCCN)C(=O)N[C@H](CCCNC(=N)N)C(=O)c1nc2ccccc2s1` [MM3194C, N-[(S)-2-hydroxy-1-[N-(S)-5-amino-1-[N-(R)-1-[(1,3-benzothiazol-2-yl)carbonyl]-4-guanidinobutylcarbamoyl]pentylcarbamoy1]ethyl]-(S)-1-acetyl-2-pyrrolidinecarboxamide]: the results for the IC50 at HGFA (read-out: HGFA IC50), against matriptase and on hepsin (read-out: Hepsin IC50) were above 20000 nM, 5.72 nM and 24.9 nM, respectively.
With `CCC(C)[C@H](NC(C)=O)C(=O)N[C@@H](CO)C(=O)N[C@@H](Cc1ccccc1)C(=O)N[C@H](CCCNC(=N)N)C(=O)c1nc2ccccc2s1` (stereo partly drawn) [MM4009-1, N-[(S)-2-hydroxy-1-[N-(S)-1-[N-(R)-1-[(1,3-benzothiazol-2-yl)carbonyl]-4-guanidinobutylcarbamoyl]-2-phenylethylcarbamoyl]ethyl](2S)-2-acetylamino-3-methylvaleramide], the IC50 is 1340 nM at HGFA (read-out: HGFA IC50), 18.4 nM on matriptase and 2.08 nM at hepsin (read-out: Hepsin IC50).
For the compound `CC(=O)N[C@@H](CO)C(=O)N[C@@H](Cc1cncn1COCc1ccccc1)C(=O)N[C@@H](CC(C)C)C(=O)N[C@@H](CCCNC(=N)N)C(=O)c1nc2ccccc2s1` [MM4036-2, N-[(S)-1-[(1,3-benzothiazol-2-yl)carbonyl]-4-guanidinobutyl](S)-2-[(S)-2-[(S)-2-acetylamino-3-hydroxypropionylamino]-3-{1-[(benzyloxy)methyl]-5-imidazolyl}propionylamino]-4-methylvaleramide], the IC50 at HGFA (read-out: HGFA IC50) came to 1070 nM; against matriptase, 77.7 nM; at hepsin (read-out: Hepsin IC50), 2.81 nM.
Turning to `CC(=O)N[C@H]1Cc2ccc(cc2)OCCCC[C@@H](C(=O)N[C@H](CCCNC(=N)N)C(=O)c2nc3ccccc3s2)NC(=O)[C@H](Cc2ccccc2)NC1=O` [VD4111A, N-[(R)-1-[(1,3-benzothiazol-2-yl)carbonyl]-4-guanidinobutyl]-(7S,10S,13S)-13-acetylamino-10-benzyl-9,12-dioxo-2-oxa-8,11-diazabicyclo[13.2.2]nonadeca-1(17),15,18-triene-7-carboxamide], the IC50 at HGFA stood at 3280 nM; on matriptase, 330 nM; on hepsin it was 12.7 nM.

Usually IC50 stands for the concentration at which inhibition is half-maximal.

The values above are taken from US20250171495A1, “MUTLI-TARGETED SERINE PROTEASE INHIBITORS FOR TREATMENT OF CANCER AND VIRAL INFECTION” (Washington University, priority 2023, published 2025).
